{"source": "patent US9463188B2", "about": "“Osteopontin production inhibitor containing dictyopyrone derivative or dihydrodictyopyrone derivative as active ingredient” (TOHOKU UNIVERSITY, priority 2013, dated 2016)", "system": "OPN promoter in A549/OPNluc cells", "assay": "Influence of mevalonic acid on suppression of luciferase activity under control of OPN promoter", "format": "cell-based, human", "method": "In order to determine whether the OPN production inhibitory effect of a dictyopyrone derivative or a dihydrodictyopyrone derivative contained as an active ingredient in the OPN production inhibitor according to the present invention is based on the same mechanism of action as a well-known statin-based drug for treatment of hypercholesteremia, simvastatin or the compound 3 was added to a culture liquid containing A549/OPNluc cells to determine its effect on gene expression under control of OPN promoter and to observe whether or not the effect was maintained even in the presence of mevalonic acid. […]\nThe solution in each well was mixed with a vortex mixer, and then the 96-well plate was incubated in a CO2 incubator (at 37° C. and 5% CO2) for 48±4 hours. […] After 30 min, 90 min, and 120 min, absorbance values (450 nm) were measured using a microplate reader (Bio-Rad; Benchmark or Thermo Scientific; Varioskan Flash).\nThe absorbance values were input into an Excel file, and the absorbance values of all the samples of each test group were divided by the average absorbance value of Control to determine the ratio of the absorbance value of each sample to the absorbance value of Control (Ratio to Control). Absorbance value of each sample÷absorbance value of Control=Ratio to Control […]", "data": [{"compound": "CCCCCCCCCCCC(=O)[C@H]1C(=O)O[C@@H](C)C[C@@H]1C", "note": "[Chemical formula 3]", "values": [{"measurement": "luciferase activity under control of OPN promoter after addition of MVA", "setting": "compound 3 25 μM + MVA (100 μM or 1 mM)", "value": "not recovered"}, {"measurement": "luciferase activity under control of OPN promoter", "setting": "compound 3 25 μM, no MVA, corrected by WST Ratio to Control", "value": "suppression of luciferase activity"}]}]}
